Values quoted from earlier work as cited in US20050159419A1, “Compositions of a cyclooxygenase-2 selective inhibitor and a central nervous system stimulant for the treatment of central nervous system damage” (Pharmacia Corporation, priority 2003, published 2005).

Assays:
human stroke victims = settings: coupled with physical therapy, compared to stroke victims receiving only physical therapy

SMILES: CC(N)Cc1ccccc1 (centres unmarked) [amphetamine]
- motor recovery (human stroke victims): accelerated motor recovery
- alternative circuit activation (infarcted rats): promoted alternative circuit activation
